Results as given in patent US20120295935A1, “MIXED AMINAL PHARMACEUTICAL COMPOSITIONS AND USES THEREOF” (priority 2010, published 2012).

Key:
[1] = tested on: MLO-A5 osteocyte cells; experiment: mRNA levels by real-time PCR in osteocyte cells; assay type: cell-based; details: 100 nM-50 μM for 1-24 h
Description: (§1) Responses to Administration of Salubrinal—In vitro responses to salubrinal: In order to evaluate the effects of salubrinal, MC3T3 E1 osteoblast-like cells and MLO-A5 osteocyte cells (Barragan-Adjemian, C., et al., “Mechanism by which MLO-A5 late osteoblasts/early osteocytes mineralize in culture: similarities with mineralization of lamellar bone,” Calcif. Tissue Int. 79:340-353 (2006)) were incubated with salubrinal at 100 nM-50 μM for 1-24 h. The mRNA levels of the selected genes, TF4, ATF3, Osteocalcin (OCN), and CHOP, were determined by real-time PCR. […] In MC3T3 cells, for instance, the Osteocalcin mRNA level, which is regulated by ATF4 and Runx2 (Xiao et al. 2005), was elevated 11.8±0.2 fold at 10 μM salubrinal in 24 h.

[2] = tested on: female SD rats; experiment: Rat tibia healing of surgical wounds (micro CT); assay type: in vivo; details: for cortical thickness / cortical thickness elevated vs control: tibia
Text: Rat tibia-healing of surgical wounds. Twenty female SD rats (˜8 weeks, body weight ˜180 g) received a surgical hole with ˜2.0 mm in diameter in the left and right tibiae (Zhang P., et al., Knee loading accelerates bone healing in mice, J. Bone Miner. Res. 22:1979-1987 (2007)). The hole was located on the medial surface ˜15 mm distant apart from the proximal end of the tibia (Chiba S., et al., Molecular analysis of defect healing in rat diaphyseal bone, J. Vet. Med. Sci. 63:603-606 (2001)). During the first 5 days, 100 μl of salubrinal solution at dosage of 0.025 mg/kg was injected into the left limb and a PBS solution (vehicle control) in the right limb (Wang J W, et al., Locally applied simvastatin promotes fracture healing in ovariectomized rat, Osteoporosis Int. 18:1641-1650 (2007)). Injection was subcutaneous targeted to the wound site. Rats were sacrificed on days 10 or 20 after surgery, and the axial and transverse length of the holes as well as cortical thickness (1.5 mm proximal and distal to the center of the hole) were determined with micro CT imaging (μCT-20, Scanco Medical AG).

[3] = tested on: rat brain; details: intra-cerebroventricular or intra-peritoneal administration; cited from earlier work
[4] = tested on: MC3T3 cells; experiment: mRNA expression levels by real-time PCR; assay type: cell-based, mouse
Description: Responses to Administration of Thapsigargin—Upregulation of transcription factors linked to bone formation as well as PERK: The effects of 10 nM thapsigargin on mRNA expression levels of ISR-linked genes (ATF4, ATF3, and CHOP) as well as genes involved in bone remodeling (Runx2, Osterix, and Rank1), were examined (FIG. 5). […] Out of 4 transcription factors (ATF4, ATF3, Runx2, and Osterix), the level of ATF4 mRNA was elevated 2-4 fold throughout the treatments. […] The mRNA level of type 1 collagen was elevated 5 h and 10 h for T1h (1 h exposure at 10 nM).
as §1

[5] = tested on: eIF2α-p (phosphorylated form of eukaryotic initiation factor 2—subunit α); experiment: Western analysis of eIF2α-p in response to salubrinal; assay type: cell-based, mouse; details: 10 μM or 50 μM, 1 to 5 h and 1 to 2 days
Text: MS3T3 osteoblast-like cells were used to evaluate the level of eIF2α-p (phosphorylated form of eukaryotic initiation factor 2—subunit α) in response to salubrinal.

## O=C(/C=C/c1ccccc1)NC(NC(=S)Nc1cccc2cccnc12)C(Cl)(Cl)Cl (stereo not shown) [salubrinal]
[1]
  mRNA levels of the selected genes: did not show any significant alterations
[2]; tibia medial cortex, day 10
  size of the wounds: 1.614±0.014 mm
[2]; tibia medial cortex, day 10, 0.025 mg/kg s.c. first 5 days
  wound size smaller vs control: 12.3%
[2]; tibia medial cortex, day 20
  size of the wounds: 1.375±0.033 mm
  wound size decreased vs control: 19.1%
[2]; day 10
  cortical thickness: 0.434±0.006 mm
  cortical thickness elevated vs control: 11.6%
[2]; day 20
  cortical thickness: 0.537±0.005 mm
  cortical thickness elevated vs control: 20.3%
[3]
  excitotoxic neuronal death in vivo: decreased
[4]; 10 μM in 24 h
  Osteocalcin mRNA level: 11.8±0.2 fold
[4]; MC3T3 cells, 100 nM-50 μM for 1-24 h
  mRNA levels of the selected genes (TF4, ATF3, Osteocalcin, CHOP): upregulated
[5]
  phosphorylated level of eIF2α: Elevated
